# Source: PubChem BioAssay (NCI)
#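 Protocol summary: plate cells (96-well), add compound at 5 concentrations, incubate 48 h, interpolate endpoints linearly. TGI is the concentration that stops growth completely.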
# Key:
# Assay in all cases: DTP human tumour cell line panel, 48 h
# 786-0 renal = test system: 786-0 renal
# A498 renal = test system: A498 renal
# A549 NSCLC = test system: A549 NSCLC
# ACHN renal = test system: ACHN renal
# BT-549 breast = test system: BT-549 breast
# CAKI-1 renal = test system: CAKI-1 renal
# CCRF-CEM leukemia = test system: CCRF-CEM leukemia
# COLO 205 colon = test system: COLO 205 colon
# DU-145 prostate = test system: DU-145 prostate
# EKVX NSCLC = test system: EKVX NSCLC
# HCC-2998 colon = test system: HCC-2998 colon
# HCT-116 colon = test system: HCT-116 colon
# HCT-15 colon = test system: HCT-15 colon
# HL-60(TB) leukemia = test system: HL-60(TB) leukemia
# HOP-62 NSCLC = test system: HOP-62 NSCLC
# HOP-92 NSCLC = test system: HOP-92 NSCLC
# HS 578T breast = test system: HS 578T breast
# HT29 colon = test system: HT29 colon
# IGROV1 ovarian = test system: IGROV1 ovarian
# K-562 leukemia = test system: K-562 leukemia
# KM12 colon = test system: KM12 colon
# LOX IMVI melanoma = test system: LOX IMVI melanoma
# M14 melanoma = test system: M14 melanoma
# MALME-3M melanoma = test system: MALME-3M melanoma
# MCF7 breast = test system: MCF7 breast
# MDA-MB-231 breast = test system: MDA-MB-231 breast
# MDA-MB-435 = test system: MDA-MB-435
# MDA-N = test system: MDA-N
# MOLT-4 leukemia = test system: MOLT-4 leukemia
# NCI-H226 lung = test system: NCI-H226 lung
# NCI-H23 lung = test system: NCI-H23 lung
# NCI-H460 lung = test system: NCI-H460 lung
# NCI-H522 lung = test system: NCI-H522 lung
# NCI/ADR-RES ovarian = test system: NCI/ADR-RES ovarian
# OVCAR-3 ovarian = test system: OVCAR-3 ovarian
# OVCAR-4 ovarian = test system: OVCAR-4 ovarian
# OVCAR-5 ovarian = test system: OVCAR-5 ovarian
# OVCAR-8 ovarian = test system: OVCAR-8 ovarian
# PC-3 prostate = test system: PC-3 prostate
# RPMI-8226 leukemia = test system: RPMI-8226 leukemia
# RXF 393 renal = test system: RXF 393 renal
# SF-268 CNS = test system: SF-268 CNS
# SF-295 CNS = test system: SF-295 CNS
# SF-539 CNS = test system: SF-539 CNS
# SK-MEL-2 melanoma = test system: SK-MEL-2 melanoma
# SK-MEL-28 melanoma = test system: SK-MEL-28 melanoma
# SK-MEL-5 melanoma = test system: SK-MEL-5 melanoma
# SK-OV-3 ovarian = test system: SK-OV-3 ovarian
# SN12C renal = test system: SN12C renal
# SNB-19 CNS = test system: SNB-19 CNS
# SW-620 colon = test system: SW-620 colon
# T-47D breast = test system: T-47D breast
# TK-10 renal = test system: TK-10 renal
# U251 CNS = test system: U251 CNS
# UACC-257 melanoma = test system: UACC-257 melanoma
# UACC-62 melanoma = test system: UACC-62 melanoma
# UO-31 renal = test system: UO-31 renal
# SNB-75 CNS = test system: SNB-75 CNS
# SR leukemia = test system: SR leukemia
smiles,measurement,setting,value
NC(N)=NS(=O)(=O)c1ccc(Nc2c3ccccc3nc3c(C(=O)NNCCO)cccc23)cc1,TGI,786-0 renal,> 1000 nM
same,TGI,A498 renal,> 1000 nM
same,TGI,A549 NSCLC,> 1000 nM
same,TGI,ACHN renal,> 1000 nM
same,TGI,BT-549 breast,303 nM
same,TGI,CAKI-1 renal,912 nM
same,TGI,CCRF-CEM leukemia,> 1000 nM
same,TGI,COLO 205 colon,351 nM
same,TGI,DU-145 prostate,> 1000 nM
same,TGI,EKVX NSCLC,> 1000 nM
same,TGI,HCC-2998 colon,462 nM
same,TGI,HCT-116 colon,354 nM
same,TGI,HCT-15 colon,> 1000 nM
same,TGI,HL-60(TB) leukemia,671 nM
same,TGI,HOP-62 NSCLC,536 nM
same,TGI,HOP-92 NSCLC,> 1000 nM
same,TGI,HS 578T breast,> 1000 nM
same,TGI,HT29 colon,933 nM
same,TGI,IGROV1 ovarian,434 nM
same,TGI,K-562 leukemia,422 nM
same,TGI,KM12 colon,287 nM
same,TGI,LOX IMVI melanoma,375 nM
same,TGI,M14 melanoma,456 nM
same,TGI,MALME-3M melanoma,273 nM
same,TGI,MCF7 breast,241 nM
same,TGI,MDA-MB-231 breast,731 nM
same,TGI,MDA-MB-435,446 nM
same,TGI,MDA-N,504 nM
same,TGI,MOLT-4 leukemia,> 1000 nM
same,TGI,NCI-H226 lung,420 nM
same,TGI,NCI-H23 lung,280 nM
same,TGI,NCI-H460 lung,341 nM
same,TGI,NCI-H522 lung,280 nM
same,TGI,NCI/ADR-RES ovarian,> 1000 nM
same,TGI,OVCAR-3 ovarian,269 nM
same,TGI,OVCAR-4 ovarian,> 1000 nM
same,TGI,OVCAR-5 ovarian,> 1000 nM
same,TGI,OVCAR-8 ovarian,> 1000 nM
same,TGI,PC-3 prostate,> 1000 nM
same,TGI,RPMI-8226 leukemia,420 nM
same,TGI,RXF 393 renal,756 nM
same,TGI,SF-268 CNS,307 nM
same,TGI,SF-295 CNS,> 1000 nM
same,TGI,SF-539 CNS,> 1000 nM
same,TGI,SK-MEL-2 melanoma,311 nM
same,TGI,SK-MEL-28 melanoma,> 1000 nM
same,TGI,SK-MEL-5 melanoma,278 nM
same,TGI,SK-OV-3 ovarian,> 1000 nM
same,TGI,SN12C renal,> 1000 nM
same,TGI,SNB-19 CNS,> 1000 nM
same,TGI,SW-620 colon,377 nM
same,TGI,T-47D breast,296 nM
same,TGI,TK-10 renal,> 1000 nM
same,TGI,U251 CNS,269 nM
same,TGI,UACC-257 melanoma,> 1000 nM
same,TGI,UACC-62 melanoma,> 1000 nM
same,TGI,UO-31 renal,> 1000 nM
O=C(O)CN1CCNCCNCC1,TGI,786-0 renal,> 100000 nM
same,TGI,A498 renal,> 100000 nM
same,TGI,A549 NSCLC,> 100000 nM
same,TGI,ACHN renal,> 100000 nM
same,TGI,BT-549 breast,> 100000 nM
same,TGI,CAKI-1 renal,> 100000 nM
same,TGI,CCRF-CEM leukemia,> 100000 nM
same,TGI,COLO 205 colon,> 100000 nM
same,TGI,DU-145 prostate,> 100000 nM
same,TGI,EKVX NSCLC,> 100000 nM
same,TGI,HCT-116 colon,> 100000 nM
same,TGI,HCT-15 colon,> 100000 nM
same,TGI,HL-60(TB) leukemia,68500 nM
same,TGI,HOP-62 NSCLC,> 100000 nM
same,TGI,HOP-92 NSCLC,> 100000 nM
same,TGI,HS 578T breast,> 100000 nM
same,TGI,HT29 colon,> 100000 nM
same,TGI,IGROV1 ovarian,> 100000 nM
same,TGI,K-562 leukemia,> 100000 nM
same,TGI,KM12 colon,> 100000 nM
same,TGI,LOX IMVI melanoma,> 100000 nM
same,TGI,M14 melanoma,> 100000 nM
same,TGI,MCF7 breast,> 100000 nM
same,TGI,MDA-MB-231 breast,> 100000 nM
same,TGI,MDA-MB-435,> 100000 nM
same,TGI,MDA-N,> 100000 nM
same,TGI,MOLT-4 leukemia,> 100000 nM
same,TGI,NCI-H226 lung,> 100000 nM
same,TGI,NCI-H460 lung,> 100000 nM
same,TGI,NCI/ADR-RES ovarian,> 100000 nM
same,TGI,OVCAR-3 ovarian,> 100000 nM
same,TGI,OVCAR-4 ovarian,> 100000 nM
same,TGI,OVCAR-5 ovarian,> 100000 nM
same,TGI,OVCAR-8 ovarian,> 100000 nM
same,TGI,PC-3 prostate,> 100000 nM
same,TGI,RPMI-8226 leukemia,> 100000 nM
same,TGI,SF-539 CNS,> 100000 nM
same,TGI,SK-MEL-2 melanoma,> 100000 nM
same,TGI,SK-MEL-28 melanoma,> 100000 nM
same,TGI,SK-MEL-5 melanoma,> 100000 nM
same,TGI,SK-OV-3 ovarian,> 100000 nM
same,TGI,SN12C renal,> 100000 nM
same,TGI,SNB-19 CNS,> 100000 nM
same,TGI,SNB-75 CNS,> 100000 nM
same,TGI,SR leukemia,> 100000 nM
same,TGI,SW-620 colon,> 100000 nM
same,TGI,T-47D breast,> 100000 nM
same,TGI,TK-10 renal,> 100000 nM
same,TGI,U251 CNS,> 100000 nM
same,TGI,UACC-257 melanoma,> 100000 nM
same,TGI,UACC-62 melanoma,> 100000 nM
same,TGI,UO-31 renal,> 100000 nM
